Two molecules from ChEMBL document CHEMBL4359811, “Development of Potent and Selective Pyrazolopyrimidine IRAK4 Inhibitors” (J Med Chem, 2019) can be followed below.

A short description of data set [1]: Oral bioavailability in mouse at 10 mg/kg. In kind it is ADME, organism-based. As to conditions: in vivo.
Data set [2] in a line: AUC (infinity) in mouse at 10 mg/kg, po. In kind it is ADME, organism-based. Details: dose 10 mg/kg, route oral, time infinity. The conditions noted are these: in vivo.
The nature of data set [3]: AUC (infinity) in mouse at 5 mg/kg, po. In kind it is ADME, organism-based. As to conditions: in vivo. Details: dose 5 mg/kg, route oral, time infinity.
In data set [4] the target is T1, Interleukin-1 receptor-associated kinase 4 (Homo sapiens, UniProt Q9NWZ3).
T1 sequence (Q9NWZ3 whole entry): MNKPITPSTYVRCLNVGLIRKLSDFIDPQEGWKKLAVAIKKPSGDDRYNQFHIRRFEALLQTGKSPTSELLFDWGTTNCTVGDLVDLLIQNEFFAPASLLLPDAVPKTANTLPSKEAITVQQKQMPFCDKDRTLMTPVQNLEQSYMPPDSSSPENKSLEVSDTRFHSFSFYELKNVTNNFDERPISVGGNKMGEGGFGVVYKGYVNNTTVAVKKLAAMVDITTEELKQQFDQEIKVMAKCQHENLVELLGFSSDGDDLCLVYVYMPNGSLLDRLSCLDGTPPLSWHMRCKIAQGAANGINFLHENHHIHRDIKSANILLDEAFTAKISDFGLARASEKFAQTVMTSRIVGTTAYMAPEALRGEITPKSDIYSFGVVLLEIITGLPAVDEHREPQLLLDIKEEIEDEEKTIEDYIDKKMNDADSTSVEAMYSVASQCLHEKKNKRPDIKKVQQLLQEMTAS
In words: Inhibition of IRAK4 in human THP1-Xblue-MD2-CD14 cells assessed as reduction in LPS-induced NFkappaB transcription by measuring alkaline phosphatase level preincubated for 1 hr followed by LPS stimulation and measured after 20 hrs by quanti-blue reagent based reporter assay. Background: Reporter assays use an easily measured gene product as a stand-in for the process of interest.

Data set [5] in a line: AUC (infinity) in mouse at 30 mg/kg, po. It is filed as ADME, organism-based. Also noted: dose 30 mg/kg, time infinity, route oral. As to conditions: in vivo.
Data set [6] in a line: Oral bioavailability in mouse at 5 mg/kg. It is filed as ADME, organism-based. As to conditions: in vivo.
A short description of data set [7]: Volume of distribution at steady state in mouse at 1 mg/kg, iv. It is filed as ADME, organism-based. As to conditions: in vivo, read-out: Vdss.
Data set [8] can be described thus: Oral bioavailability in mouse at 100 mg/kg administered as suspension in MCT. The conditions noted are these: in vivo. It is filed as ADME, organism-based.
Data set [9] is described as follows: Protein binding in human plasma at 5 uM incubated for 4 hrs by LC-MS/MS analysis. It is filed as ADME, cell-free. As to conditions: read-out: PPB (converted).
Data set [10] can be described thus: AUC (infinity) in mouse at 100 mg/kg, po administered as suspension in MCT. Details: dose 100 mg/kg, time infinity, route oral. The conditions noted are these: in vivo. It is filed as ADME, organism-based.
Data set [11] is described as follows: Cmax in mouse at 10 mg/kg, po. In kind it is ADME, organism-based. Also noted: dose 10 mg/kg, route oral. The conditions noted are these: in vivo.
In data set [12] the target is Interleukin-1 receptor-associated kinase 1 (Homo sapiens, UniProt P51617). Nature of the data set: Inhibition of human recombinant full length N-terminal His6-tagged IRAK1 (Argl94 to Ser712 residues) expressed in insect cells using H-KKARFSRFAGSSPSQSSMVAR as substrate incubated for 60 mins by fluorescence polarisation assay. (In general: Fluorescence polarisation rises when a labelled molecule tumbles more slowly, as on binding a larger partner.)

In data set [13] the target is T2, Interleukin-1 receptor-associated kinase 4 (Homo sapiens) (UniProt Q9NWZ3).
T2 sequence (whole entry): T1 sequence (Q9NWZ3 whole entry)
Nature of the data set: Inhibition of human recombinant full length His6-tagged IRAK4 expressed in baculovirus expression system at 1 uM relative to control.

Data set [14] is described as follows: Cmax in mouse at 100 mg/kg, po administered as suspension in MCT. It is filed as ADME, organism-based. Details: dose 100 mg/kg, route oral. As to conditions: in vivo.
Data set [15] in a line: Kinetic aqueous solubility of the compound in PBS buffer at pH 7.4 incubated for 24 hrs under shaking condition by LC-CLND assay. It is filed as physicochemical. As to conditions: buffer, pH 7.4, 24 h.
Data set [16] concerns the target T1, Interleukin-1 receptor-associated kinase 4. In words: Inhibition of human recombinant full length His6-tagged IRAK4 expressed in baculovirus expression system using H-KKARFSRFAGSSPSQSSMVAR as substrate incubated for 90 mins by fluorescence polarisation assay.
Data set [17] in a line: Protein binding in mouse plasma at 5 uM incubated for 4 hrs by LC-MS/MS analysis. In kind it is ADME, cell-free. As to conditions: read-out: PPB (converted).
Data set [18] is described as follows: Oral bioavailability in mouse at 30 mg/kg. As to conditions: in vivo. In kind it is ADME, organism-based.
Data set [19] can be described thus: Cmax in mouse at 5 mg/kg, po. In kind it is ADME, organism-based. Details: dose 5 mg/kg, route oral. The conditions noted are these: in vivo, read-out: Cmax.
Data set [20] in a line: Cmax in mouse at 30 mg/kg, po. It is filed as ADME, organism-based. Also noted: dose 30 mg/kg, route oral. The conditions noted are these: in vivo.
A short description of data set [21]: Apparent permeability from apical to basolateral side in MDCK cells at 10 uM incubated for 180 mins and measured up to 180 min by LC-MS/MS analysis. In kind it is ADME, cell-based, Canis lupus familiaris. The conditions noted are these: dog.
Data set [22] can be described thus: Blood clearance in mouse at 1 mg/kg, iv. As to conditions: whole blood. In kind it is ADME, organism-based.

Sequence of Interleukin-1 receptor-associated kinase 1 (P51617 whole entry): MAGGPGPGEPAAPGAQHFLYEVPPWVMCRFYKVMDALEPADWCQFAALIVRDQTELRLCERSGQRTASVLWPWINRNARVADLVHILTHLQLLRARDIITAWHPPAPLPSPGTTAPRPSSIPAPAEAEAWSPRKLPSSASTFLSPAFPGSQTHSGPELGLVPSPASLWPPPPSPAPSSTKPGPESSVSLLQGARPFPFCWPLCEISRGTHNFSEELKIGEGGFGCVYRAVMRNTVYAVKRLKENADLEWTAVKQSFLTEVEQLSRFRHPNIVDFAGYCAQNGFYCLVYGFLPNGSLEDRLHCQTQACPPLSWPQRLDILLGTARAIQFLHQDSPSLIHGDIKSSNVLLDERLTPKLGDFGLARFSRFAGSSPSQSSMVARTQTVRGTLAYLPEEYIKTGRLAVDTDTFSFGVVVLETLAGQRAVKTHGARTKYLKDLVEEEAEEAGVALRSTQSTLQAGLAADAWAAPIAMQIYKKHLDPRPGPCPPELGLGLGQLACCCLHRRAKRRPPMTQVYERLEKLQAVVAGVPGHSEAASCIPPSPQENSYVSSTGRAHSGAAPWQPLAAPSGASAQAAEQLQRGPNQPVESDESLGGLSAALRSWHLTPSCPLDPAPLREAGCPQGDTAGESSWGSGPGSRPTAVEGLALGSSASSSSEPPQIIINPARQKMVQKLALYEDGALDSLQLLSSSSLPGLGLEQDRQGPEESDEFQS

Usually AUC stands for concentration integrated over time. High values mean high exposure, low ones low exposure. By AUC(0-inf) is commonly meant total exposure, with the tail of the curve extrapolated. Read a low AUC(0-inf) as low exposure. Usually IC50 stands for the concentration needed to halve the response being measured. The term bioavailability denotes dose-corrected exposure relative to a reference, in per cent. In general, Cmax refers to the maximum level reached in the sampled fluid or tissue. In general, Ki refers to a measure of affinity in units of concentration, obtained from inhibition or displacement. Usually inhibition stands for the relative decrease from the control value, in per cent. In general, Papp A→B refers to the apparent permeability from the apical to the basolateral side of a cell layer. In the case of `O=C(Nc1cc2sc(N3CCOCC3)nc2cc1N1CCOCC1)c1cnn2cccnc12`, the values for the F in data set [1] and in data set [8] were 25% and 6%, respectively. Besides, the AUC in data set [2] came to 12 µM·h; in data set [10] it was 40 µM·h. Also, the results for the total exposure AUC(0-inf) in [3] and in data set [5] were 0.6 µM·h and 11 µM·h, respectively. Besides, in data set [4], the IC50 was 76 nM. Moreover, the bioavailability stood at 5% in data set [6] and 12% in [18]. Besides, the Vd in [7] came out at 0.9 L/kg. Also, the figures for the fraction unbound at 4 h, 5 µM in data set [9] and in data set [17] were 0.05 and 0.01, respectively. Also, the Cmax is 1300 nM in data set [11], 3.3 µM in data set [14], 200 nM in data set [19] and 2000 nM in data set [20]. In addition, the inhibitory constant (Ki) in data set [12] turned out to be 190 nM; in [16], 0.8 nM. Further, in data set [13], the inhibition was above 70%. Moreover, in data set [15], the Kinetic_solubility entry was “Insoluble”. The apical-to-basolateral permeability (Papp A→B) at 3 h, 10 µM in [21] came out at 12 ×10⁻⁶ cm/s.

As usually defined, the clearance is the volume of plasma or blood freed of the substance per unit of time. A lower clearance goes with inefficient removal. `Cn1c(N2CCOCC2)nc2cc(N3CCC(CO)CC3)c(NC(=O)c3cnn4cccnc34)cc21` yielded an AUC(0-inf) in data set [3] of 0.5 µM·h. For the same molecule, the 50% inhibitory concentration (IC50) in data set [4] is 97 nM. This molecule also returned a bioavailability in [6] of 3%. Further, the Vd in [7] amounted to 0.4 L/kg. For the same molecule, the values for the fraction unbound at 4 h, 5 µM in data set [9] and in [17] were 0.12 and 0.05, respectively. The Ki in data set [12] is above 6100 nM; in data set [16] it was 1.8 nM. The same molecule yielded a clearance in [22] of 23 mL/min/kg. Also, in data set [19], the peak concentration (Cmax) amounted to 200 nM. In addition, the Papp A→B at 3 h, 10 µM in data set [21] stood at 2.4 ×10⁻⁶ cm/s.
